In patent publication US20160220710A1, “COMPOSITIONS AND METHODS FOR DELIVERING PHARMACEUTICAL AGENTS” (THE REGENTS OF THE UNIVERSITY OF MICHIGAN, priority 2015, published 2016):
“Also recorded” adds a separate entry of the source. Where two headings read alike, the source gives them in different places.

Experiments:
[1] = mice; cited from earlier work
[2] = test system: TLR2; test: TNFα ELISA after Pam3 stimulation; type: cell-based, murine; settings: Pam3, 2 and 4 μM
Protocol: (§1) The murine macrophage cell line RAW 264.7 was purchased from ATCC (Manassas, Va.) and maintained in DMEM (Life Technologies, Carlsbad, Calif.) supplemented with 10% FBS. Soluble CFZ or isolated CLDIs were added at various concentrations in DMEM with 5% FBS to 6-well plates containing 4×10^5 cells/well and incubated (24 h at 37° C. and 5% CO2). Culture supernatants were harvested at 24 h, centrifuged (1500×g for 5 min), and stored (−20° C.) in frozen aliquots prior to analysis. For experiments involving TLR stimulation, cells were washed twice with pre-warmed DPBS to remove extracellular, non-phagocytosed CLDIs or CFZ, and then the cells were serum-starved for 18 h in DMEM. Supernatants were collected from unstimulated cells and cells stimulated with 200 ng/ml Pam3 or 1 μg/ml LPS in DMEM.
(§2) The media of cells with or without 6 h TLR stimulation by Pam3 or LPS was harvested, and TNFα and IL-1RA levels were measured by ELISA (Duoset, R&D Systems, Minneapolis, Minn.) in duplicate wells according to the manufacturer's instructions. The cytokine concentrations were expressed as picogram per milligram of cell lysate. Experiments were repeated three times and values are expressed as the mean±SD.

[3] = test system: TNFα; test: TNFα ELISA, non-stimulated cells; type: cell-based, murine; settings: non-stimulated RAW 264.7 cells
Protocol: as §1, §2

[4] = Measurement of CFZ in tissues; type: in vivo, mice
Protocol: Mice (4 week old, male C57Bl6) were purchased from the Jackson Laboratory (Bar Harbor, Me.) and acclimatized for 1 week in a specific-pathogen-free animal facility. Animal care was provided by the University of Michigan's Unit for Laboratory Animal Medicine (ULAM), and the experimental protocol was approved by the Committee on Use and Care of Animals. Clofazimine (CFZ) (C8895; Sigma-Aldrich, St. Louis, Mo.) was dissolved in sesame oil (Roland, China, or Shirakiku, Japan) to achieve a concentration of 3 mg/ml, which was mixed with Powdered Lab Diet 5001 (PMI International, Inc., St. Louis, Mo.) to produce a 0.03% drug to powdered feed (Baik et al., 2013, supra). […]
CFZ mass was measured as previously reported (Baik et al., 2012, supra; Venkatesan, et al., Arzneim. Forsch. 2007, 57, 472-474). […] CFZ mass was spectrophotometrically determined in methanol (λ=490 nm) and the concentration was calculated using a standard curve generated by spiking extracted tissue of the control (vehicle-only treated) mice tissue with known amounts of drug. The tissue-to-fat partition ratios were computed based on mass of drug in the various tissues relative to mass of drug in total body fat (units: dimensionless; calculated as [mg CFZ/g tissue]/[mg CFZ/g fat]). […] CFZ mass was measured in relation to the measured weight of the tissue or plasma volume.

[5] = test system: carrageenan-induced footpad inflammation; test: Carrageenan foot edema test; type: in vivo, mice
Protocol: Clofazimine (CFZ, Sigma-Aldrich, C8895) was prepared in sesame oil (Shirakiku, Japan, or Roland, China) and Powdered Lab Diet 5001 (PMI International, Inc., St. Louis, Mo.) and orally administrated to Wild-type (WT) C57BL/6 mice or IL-1RA^−/− (4-5 week old, Jackson Laboratory, Bar Harbor, Me.) for up to 8 weeks ad libitum as previously described (Baik et al., 2013, supra; Baik et al., 2011, supra). Control mice were fed with the same diet without CFZ. The animal protocol was approved by the University of Michigan's Animal Care and Use Committee in accordance with the National Institutes of Health guidelines (UCUCA #PRO0005111).
Foot inflammation in response to carrageenan injection was conducted in CFZ and control mice as previously described (Otterness I G, et al., Moore P F (1988) Immunochemical Techniques Part L: Chemotaxis and Inflammation (Elsevier) doi:10.1016/0076-6879(88)62086-6). In brief, the volume of each hind paw was measured with a caliper before and after the intraplantar injection of 30 μl 2% carrageenan ([…]) in PBS or equal volume of PBS in the contralateral paw. Paw swelling was measured at 4 and 48 h after injection, after which the animals were euthanized by exsanguination while deeply anesthetized with an intraperitoneal injection of ketamine (100 mg/kg) and xylazine (10 mg/kg), and the skin tissues of the plantar region were harvested for cytokine assay (see below).

[6] = test system: IL-1RA; test: IL-1RA ELISA; type: cell-based, murine; settings: RAW 264.7 cells, 24 h
Protocol: as §1, §2

[7] = humans; cited from earlier work

CC(C)/N=c1\cc2n(-c3ccc(Cl)cc3)c3ccccc3nc-2cc1Nc1ccc(Cl)cc1 [CFZ, 3-(p-chloroanilino)-10-(p-chlorophenyl)-2, 10-dihydro-2-isopropyliminophenazine]
pharmacokinetic half-life t1/2 [1]: ~7 days
Pam3/TLR2-mediated TNFα production [2]: Pam3/TLR2-mediated TNFα production was not affected
TNFα production on their own [3]: failed to induce TNFα production
CFZ mass retained in spleen ([4]; after the eight week washout period): exceeded its combined mass retained in the other organs
Kp ([4]; male, C57Bl6, mouse, adipose tissue / serum, 10 mg/kg per day, starting at three weeks of oral administration, read-out: CFZ concentration in adipose tissue relative to serum): > 10000
footpad homogenate IL-1RA levels ([5]; 2 weeks of CFZ treatment, 48 h): reduced
paw swelling vs untreated mice ([5]; 2 weeks of CFZ treatment, 48 h (legend: 4 and 48 h)): only a modest reduction in paw swelling; also recorded: only a minor reduction in swelling at 4 and 48 h
reduction in paw swelling vs untreated mice ([5]; 8 week CFZ-treated, 4 h post-injection): 57%
plasma IL-1RA levels after carrageenan ([5]; 8 week CFZ-treated, 4 h post-injury): rapidly declined at 4 h post-injury
footpad homogenate IL-1RA levels ([5]; 8 week CFZ-treated, 48 h): increased
footpad homogenate IL-1β and TNFα levels ([5]; 8 week CFZ-treated, 48 h): dramatically reduced
paw swelling vs untreated mice ([5]; 8 week CFZ-treated, 48 h post-injection): strikingly reduced swelling
anti-inflammatory effect (paw swelling) ([5]; IL-1RA KO mice, 6 weeks CFZ): greatly diminished in IL-1RA KO mice
paw swelling ([5]; WT mice, 6 weeks CFZ): reduced swelling compared to untreated and injured mice
footpad IL-1β levels ([5]; WT mice, 6 weeks CFZ, injured): significantly reduced
plasma levels of TNFα and IL-1β ([5]; all mice, ELISA detection limit): < 15 pg/mL
IL-1RA secretion [6]: did not affect IL-1RA secretion
pharmacokinetic half-life t1/2 [7]: ~70 days
